Measurements taken from paper doi:10.1101/374926v1 (bioRxiv, 2018).

How the values were obtained:
[1] = system: GR*-eGFP in Saos-2(GIGT) cells; assay: Glucocorticoid-induced eGFP translocation; type: cell-based, human; conditions: 1 μM, 30 min
[2] = system: eGFP-hGal3 in Saos-2 cells; assay: Galectin recruitment assay for endosomal damage; type: cell-based, human
[3] = system: eGFP-hGal8 in Saos-2 cells; assay: Galectin recruitment assay for endosomal damage; type: cell-based, human; conditions: RNAiMAX 16 μL/mL or LLOMe 1 mM, 1 h
Saos-2 cells = assay: FCS-based Lys9^R endosomal leakage assay; type: cell-based, human; conditions: for Lys9^R delivery efficiency (DE), cytosol / Lys9^R delivery efficiency (DE), nucleus: 60 min, FCS, n > 10 cells
[4] = In vitro FCS diffusion measurement; type: physicochemical; conditions: Milli-Q water
[5] = 2,500 cells per well in transfection medium

C[C@@H]1C[C@H]2[C@@H]3CCC4=CC(=O)C=C[C@]4(C)[C@@]3(F)[C@@H](O)C[C@]2(C)[C@@]1(O)C(=O)CO [Dex, dexamethasone]
translocation ratio (TR) [1, 5]: 3.4 ± 0.40

COC(=O)[C@H](CC(C)C)NC(=O)[C@@H](N)CC(C)C [LLOMe, L-leucyl-L-leucine methyl ester]
vesicular staining compared to the total cell area ([2]; LLOMe 1 mM, 1 hour, corresponds to ERC 400.0): 4% | ERC value routinely obtained ([2]; LLOMe 1 mM, 1 hour, untreated cells around 0.0): ~400.0 | increase of average ERC over untreated cells, eGFP-hGal3 ([2]; RNAiMAX 16 μL/mL or LLOMe 1 mM, 1 h): 147 fold | increase of average ERC over untreated cells, eGFP-hGal8 [3]: 68 fold | Lys9^R delivery efficiency (DE), cytosol (Saos-2 cells; LLOMe 0.125 mM, no agent: 3): 3% | Lys9^R delivery efficiency (DE), nucleus (Saos-2 cells; LLOMe 0.125 mM, no agent: 4): 6% | Lys9^R delivery efficiency (DE), cytosol (Saos-2 cells; LLOMe 0.25 mM): 4% | Lys9^R delivery efficiency (DE), nucleus (Saos-2 cells; LLOMe 0.25 mM): 12% | Lys9^R delivery efficiency (DE), cytosol (Saos-2 cells; LLOMe 0.5 mM): 8% | Lys9^R delivery efficiency (DE), nucleus (Saos-2 cells; LLOMe 0.5 mM): 12% | Lys9^R delivery efficiency (DE), cytosol (Saos-2 cells; LLOMe 1.0 mM): 9% | Lys9^R delivery efficiency (DE), nucleus (Saos-2 cells; LLOMe 1.0 mM): 12% | endosomal leakage of Lys9^R (Saos-2 cells; LLOMe titration up to 1 mM, 1 h): no detectable endosomal leakage

Ac-KKKKKKKKK-NH2 [Lys9^UL]
Average τdiff in vitro at 25 °C [4]: 0.064 ± 0.001 ms | Measured D at 25 °C [4]: 206 ± 3 μm^2 s^-1

K^Dex-WYSCNVCGKAFVLSRHLNRHLRVHRRAT-CONH2 [2^Dex]
translocation ratio (TR) [1, 5]: 3.0 ± 0.090 | translocation ratio (TR) ([1]; complete media): around 2.0 | translocation ratio (TR) ([1]; transfection media): around 3.0

K^Dex–GPSQPTYPGDDAPVRDLIRFYRDLRRYLNVVTR HRY-CONH2 [1^Dex]
translocation ratio (TR) [1, 5]: 3.0 ± 0.40 | mean translocation ratio (TR) ([1]; cells transfected with non-targeting siRNA, non-treated 1.2 ± 0.1): 2.4 ± 0.3 | translocation ratio (TR) ([1]; complete media): around 2.0 | translocation ratio (TR) ([1]; transfection media): around 3.0
